Laboratory results taken from US11628186B2, “Method and composition for the reduction of viral replication, duration and spread of the COVID-19 and the flu” (priority 2017, dated 2023).

Assays:
[1] = test system: patients with lung diseases including COPD; test: Comparison of inhaled salts of pyruvate, 5 ml of 0.5 mM solution (Table I)
[2] = test system: patients with hypoxemia with and without lung diseases; test: Comparison of 5 ml of 5 mM sodium pyruvate saline formulas (Table III); type: in vivo, human; conditions: 5 ml of 5 mM formula
[3] = test system: COPD patients with Allergic Rhinitis; test: 20 mM sodium pyruvate nasal sprays over three months (Table VI); type: in vivo, human; conditions: 20 mM nasal spray
[4] = test system: patients with Allergic Rhinitis other lung diseases; test: Two-year log of 367 patients using the 20 mM sodium pyruvate nasal spray (Table XIII); type: in vivo, human; conditions: healthy patients with no underlying diseases; 20 mm in at least 0.9% sodium chloride
Description: Table XIII. 367 patients over a two-year period. Each patient was provided with a log page to record the effect of inhaled 20 mM sodium pyruvate surfactant enhancer formula. The FDA has recommended that we do a phase three clinical for Allergic Rhinitis for patients where steroids are counter indicated i.e. Children, pregnant women and diabetics. Percentage measurements in patients with Allergic Rhinitis other lung diseases. 20 mM sodium pyruvate formula in 0.9% saline […] was inhaled. Overall rating was 1-10 with 1 being the most negative and 10 being the best result. The increase in nasal and lung surfactants and nasal and lung nitric oxide inhibited the docking and adhesion of viruses in the patients listed below with especially in patients with diabetes or hypoxemia. All these viruses including coronavirus, the flu (influenza A or B) and rhinovirus were unable to dock on the ACE2 type receptor and reduced the rate, severity, duration and spread of the viruses.

[5] = test system: Asthmatic and COPD patients; test: Phase I/II clinical trials of sodium pyruvate in saline by inhalation; type: in vivo, human
[6] = Rat studies of irritation or toxicity; type: in vivo; conditions: 100× concentrations of the 5 mM sodium pyruvate
From the text: Ethane and alcohol are lung irritants.

[7] = test system: subjects diagnosed with Severe COPD requiring supplemental oxygen; test: SaO2 pilot study, single inhalation dose, blinded cross-over; type: in vivo, human
Description: A total of five (5) subjects diagnosed with Severe COPD (chronic bronchitis or emphysema) and requiring supplemental oxygen at rest were enrolled in this study at the University of Connecticut. Each subject received a single inhalation dose of either 0.5 mM sodium pyruvate, 5.0 mM sodium pyruvate or 0.9% sodium chloride at each Study Visit. The dose was administered in a blinded cross-over manner at 1 week intervals; such that all subjects received each study compound. Safety and therapeutic efficacy were evaluated by the following measurements: spirometry, expired breath NO level, SaO2, vital signs, and follow-up telephone interviews.
The study was conducted in four visits: a Screening Visit and Study Visits 1-3. The effect of the inhalation of a single dose of sodium pyruvate (0.5 mM and 5.0 mM) or placebo (0.9% sodium chloride) was studied in a double-blind protocol. The primary efficacy outcome objective was the SaO2 levels for all subjects. In addition, COPD subjects were evaluated by lung function (FEV1 and PEF) and expired breath NO levels obtained just prior to and then at 60 minutes and at 3 hours in the second study, following the administration of the particular sodium pyruvate dose.

[8] = test system: patients suffering from severe lung injury or mitochondrial damage or COPD and Hypoxemia; test: Two months nebulized treatment, lung capacity; type: in vivo, human; conditions: phosphate and magnesium
From the text: Total lung capacity is the volume in the lungs at maximal inflation, the sum of VC and RV. RV is the residual volume of air remaining in the lungs after a maximal exhalation. VC vital capacity is the volume of air breath out after the deepest inhalation. Vital capacity in males is 4.8 liters and in women 3.8 liters. Slow vital capacity (SVC) is the maximum volume of air that can be exhaled slowly after slow maximum inhalation. Three male patients suffering from severe lung injury or mitochondrial damage or COPD and Hypoxemia were treated as described below for two (2) months. […] In fact, dramatic results were observed within two (2) weeks.
[…] The sterile pyruvate 15 solution is placed into a “Pulmo Aid” nebulizer manufactured by DeVilbiss Co., Somerset, Pa. 15501-0635. The sterile pyruvate solution is nebulized by the Pulmo Aid device fitted with a disposable nebulizer and inhaled by the patient. The patient inhales normally from the Pulmo Aid nebulizer until all of the solution has been nebulized and inhaled. This inhalation step typically takes about ten (10) to twenty 20 (20) minutes. The patients were treated with this inhalation therapy periodically. Initially, treatments are about four (4) times a day at about six (6) hour intervals. Treatments were reduced to three (3) times a day at about eight (8) hour intervals after 20 days of therapy. […]

[9] = 5 ml of 0.5 mM solution, inhaled
[10] = 5 ml of the 0.5 mM solution in saline

In the case of `CC(=O)C(=O)[O-].[Na+]` [Sodium, sodium pyruvate], the “Increased in FEV-1% lung function” value ([1]; 5 ml of 0.5 mM solution in physiological saline, inhaled) is reported as 13.0%, the Irritation [1, 9] is reported as “none” and the “Percentage Increase in SaO2 over baseline” value [1, 9] is reported as 0.5%. For the same compound, the “Percentage decrease or increase of Nitric Oxide over baseline” value [1, 9] was −19.0%, the “Relief of congestion, coughing and lung tightness” value [1, 9] was 5 and the “Overall Rating 1-10” value ([1]; 5 ml of 0.5 mM solution, 1 most negative, 10 best) was 8. The “FEV1” value ([1]; 5 mls of a 0.5 mM pyruvate inhalation solution in COPD and asthmatic patients) was ≥ 12%, the “Percentage Increase in FEV-1 over baseline” value ([2]; inhaled) was 4.0% and the “Percentage Increase in SaO2 over baseline” value ([2]; inhaled) was 0%. The “Percentage increase of Nitric Oxide over baseline” value ([2]; inhaled) was 18.0%^, the “Relief of Congestion and lung tightness 1-10” value ([2]; inhaled) was 5 and the “Relief of coughing percentage decrease in four hours” value ([2]; inhaled) was 15%. For the same compound, the “Overall Rating 1-10” value ([2]; 1 most negative, 10 best) was 7, the “Overall Rating 1-10” value [3] was 7 and the “Percentage decrease in COPD symptoms” value [3] was 18.0%. For the same compound, the “Percentage decrease in us of RX medications” value [3] was 20%, the “Rating 1-10 Congestion and lung tightness” value [3] was 5 and the “Rating 1-10 decrease in shortness of breath” value [3] was 6.0. The “Relief of coughing. Percentage Daily decrease” value [3] was 15%, the “amount of flu or colds reduced” value [4] was 52% and the “duration of the infection symptoms in days reduced” value [4] was 56%. The “increasing FEV1 values” [5, 10] was “over 12%”, the reducing nitric oxide [5, 10] was 19.2% and the FEV1 values ([5]; higher concentrations 1.5 mM or 5.0 mM in saline) was “did not increase FEV1 values”. For the same compound, the “increase nitric oxide levels” value ([5]; solutions of 1.5 to 5 mM) was 19%, the irritation or toxicity [6] was “not to have any irritation or toxicity” and the “Adverse Events” value ([7]; 0.5 mM and 5.0 mM single dose) was “no Adverse Events”. The “Nitric oxide levels increased” value ([7]; 5 mM inhaled solution) was 19%, the “change in the FEV1 or SaO2 compared to pre inhalation values” ([7]; single inhalation of 0.5 mM or 5.0 mM in saline) was “No significant change” and the “improvement in SaO2 levels” value ([8]; one of the three patients, end of the two months, without calcium) was 3%. For the same compound, the “improvement in lung functions, especially total lung capacity” value ([8]; same three patients, formulas without the calcium) was “no or little improvement in lung functions”.
